Broadly, the Log P is the decadic logarithm of the partition coefficient of the neutral form, usually between octanol and water. As a reminder, the pKa is the negative logarithm of the acid dissociation constant. As a reminder, the MIC is the least concentration at which growth counts as inhibited.

We go through four molecules from patent US12303491B2, “Econazole nitrate medical patch and methods of use thereof” (Temple University-Of The Commonwealth System of Higher …, priority 2017, dated 2025).

Each structure is given as a SMILES string. ≈ marks a conversion by molar mass, not a printed value.

For series [1] the following is noted: cited from earlier work.
Series [2] is described as follows: Drug release rate from acrylate patch. In kind it is physicochemical. The protocol: The percentage of TU was maintained at a concentration off 1%. Three concentrations of EN (1% w/w, 2.5% w/w and 5% w/w) and three concentrations of PG (5% w/w, 10% w/w and 20% w/w) were evaluated. The acrylate films were first fabricated with DURO-TAK® 87-4098. The total weight of the mixture was 5 g. Methanol was the only solvent used for dissolving the components in the acrylates films. The purpose of this was to screen out what concentration of EN and PG could be added into the polymer to form an acceptable patch. Then according to the EN and PG concentration determined from the DURO-TAK® 87-4098 films, fabricated patches using acrylate grades DURO-TAK® 87-2287, DURO-TAK® 87-4287 and DURO-TAK® 87-9301.
Drug release from hydrophobic polymers is slow. The adhesives polymer used are hydrophobic polymers. To increase polymer chain mobility, the addition of a hydrophobic plasticizer was considered. Triacetin (TAC) and triethyl citrate (TEC) were the selected plasticizers. The adhesive polymer acrylate had been selected as the best polymer system. TAC or TEC was added into the acrylate polymer at three different levels. These were, 5%, 10% and 20% (based on the 5 g matrix weight).

Series [3] in a line: Crystallization in patch films (visual observation). In kind it is physicochemical. The protocol: The drug (EN) and the PEs, thiourea (TU) and propylene glycol (PG), were dissolved or uniformly dispersed in the pressure sensitive adhesive(s) (PSAs), and spread onto a release liner. The drug (EN) and the nail PE (TU) were weighed out in a glass bottle and dissolved in solvent (methanol) and vortexed for 1 min. Then PG was weighed and added as solubilizer for EN and plasticizer for the patch. The solution was vortexed with the methanol as solvent until a single phase was obtained. Afterwards, the hydrophobic plasticizers triethyl citrate and hydrophilic polymer polyvinylpyrrolidone were weighed and mixed with the solvents prior to addition of PG. Finally the polymer was weighed out into the glass bottle and vortexed for 5 min to form a homogenous mixture. The formulae for the patch include but are not limited to those in Table 3. The bottles were then placed on the bottle roller and mixed overnight at medium speed to complete the mixing and remove the air bubbles generated during vortexing the polymer. […]
The percentage of TU was maintained at a concentration off 1%. Three concentrations of EN (1% w/w, 2.5% w/w and 5% w/w) and three concentrations of PG (5% w/w, 10% w/w and 20% w/w) were evaluated. […] Then according to the EN and PG concentration determined from the DURO-TAK® 87-4098 films, fabricated patches using acrylate grades DURO-TAK® 87-2287, DURO-TAK® 87-4287 and DURO-TAK® 87-9301. […]

The format of series [4] is in vitro ADME, human. Here is the method: The cadaver toenails were cut into 7 mm×7 mm (49 mm^2) pieces. The nail pieces were then hydrated at 100% RH overnight prior to start of experiment. The hydrated nail pieces were placed in the neoprene nail adapters (FIG. 2A) with orifice diameter of 5 mm. The receiver compartment was filled with pH 7.4 PBS (3 mL) containing 0.1% w/v gentamicin sulfate and the assembly was maintained at 32±1° C. throughout the duration of the experiment. Each sample was tested in triplicate. The patch in absence of thiourea was used as the control. The patches with diameter of 5 mm were cut. The release liner was removed and the drug matrix was placed in contact with the nail. The new patch was applied every 24 hrs for 14 days. Throughout the duration of the study, the Franz cells were dosed with a new patch daily. On the days 2, 4, 6, 8, 10, 12 and 14, 0.5 mL of the sample was withdrawn from the receiver compartment and replaced with equal volume of new receiving medium.

In a further series the test system is dermatomycoses. To be noted: topical, dermatological studies, treatment period 2 to 6 weeks; cited from earlier work.
For series [5] the following is noted: cited from earlier work. This is another data set of the same source.
The conditions of series [6]: cited from earlier work. This is another data set of the same source.
Series [7] in a line: Nail penetration study in PVP solution. The conditions noted are these: 1% and 5% PVP group compared to phosphoric buffer pH 7.4 and pH 5 groups.
Series [8] in a line: In-vitro skin permeation, Franz diffusion cells. In kind it is in vitro ADME, human. The text has this:
The patch was studied for the transdermal permeation of EN using human cadaver skin and Franz diffusion cells (FIG. 2A). Three films each with an area of 4 cm^2 square patch were cut from patch film. The skin was cut into 1.5 cm by 1.5 cm pieces, and mount on the Franz diffusion cells with orifice diameter of 9 mm (FIG. 2B). The release liner was removed from the films and the matrix surface was placed in contact with the skin. The area of 0.64 cm^2 of the skin was in contact with the receiving medium. The receiver compartment was sampled at 1, 2, 4, 8, 12 and 24 hr by withdrawing 0.5 mL of the receiving medium and replacing with equal volume of pH 7.4 PBS. At the end of 24 hr, epidermis and dermis were heat separated and extracted for EN content.

Series [9] in a line: Drug saturation solubility study. To be noted: PVP 1% and 5% solution compared to phosphoric buffer pH 7.4 and pH 5 (P<0.05).
The test system of series [10] is Corynebacterium diphtheria. The conditions noted are these: cited from earlier work.
The subject of another series is Streptococcus faecalis. The conditions noted are these: cited from earlier work.
Another series deals with Streptococcus faecium. To be noted: cited from earlier work.
A further series deals with Listeria monocytogenes. To be noted: cited from earlier work.
Another series has as its system Streptococcus bovis. To be noted: cited from earlier work.
Another series concerns Bacillus subtilis. To be noted: cited from earlier work.
The next series concerns Staphylococcus aureus. To be noted: cited from earlier work.
A further series has as its system plasma protein. The conditions noted are these: cited from earlier work.
Series [11] relates to Staphylococcus epidermidis. To be noted: cited from earlier work.
The subject of another series is Streptococcus pyogenes. To be noted: cited from earlier work.

As to `Cc1cc(C2CCCCC2)n(O)c(=O)c1` [CPO, ciclopirox], in series [1], the aqueous solubility is 1.4 mg/mL (≈ 6750 µM).

As for `Clc1ccc(COC(Cn2ccnc2)c2ccc(Cl)cc2Cl)cc1` (stereo not shown) [econazole nitrate, Econazole nitrate], the drug release rate in series [2] (acrylate patch in absence of PVP) is 22.347 μg/cm^2/hour; in series [2] (acrylate patch with 1% PVP) it was 26.713 μg/cm^2/hour; in series [2] (acrylate patch with 5% PVP), 27.853 μg/cm^2/hour. Besides, the crystallization in patch result in series [3] (acrylate PSA patch, drug load 5% w/w, no PG added) is reported as “slight crystallization”; in series [3] (acrylate patch screening, EN concentration raised to 5% w/w), “crystallization occurred”. The aqueous solubility in series [1] is recorded as 1.5 micrograms/ml. The “drug amount in nail plate” value in [4] is given as “significantly increase”. Further, in the series with dermatomycoses, the patients cured result was “about 90%”. Also, in series [5] (as a cream, patients), the “topically applied drug remaining on the skin surface” value is given as “about 90%”. For the same molecule, in series [6] (at 19° C.), the “Water Solubility” value was below 0.1 g/100 mL at 19 °C. Further, in series [6], the log partition coefficient (Log P) is recorded as 5.5. In addition, the pKa in [6] was 6.77. In addition, the “amount penetrated into the nail plate” value in series [7] is given as “significantly higher”. Besides, the “drug amount in the receiver compartment” value in series [8] (human cadaver skin, after 24 hours) is listed as “no drug amount appeared”. Moreover, the “drug amount in the dermis” value in series [8] (patch with thiourea vs without, 24 hr) is reported as “no significant difference”. Moreover, the “drug amount in the epidermis” value in series [8] (patch with thiourea, 24 hr) is 5.63 ug/cm^2; in [8] (patch without thiourea, 24 hr), 1.73 ug/cm^2. Further, the saturation solubility entry in series [9] is “significantly higher”.

Regarding `Clc1ccc(COC(Cn2ccnc2)c2ccc(Cl)cc2Cl)cc1` (stereo not shown) [econazole], the minimal inhibitory concentration (MIC) is 0.78 µg/mL (≈ 2.04 µM) in series [10]; 25 µg/mL (≈ 65.5 µM) in the series on Streptococcus faecalis; 25 µg/mL (≈ 65.5 µM) with Streptococcus faecium; 1.56 µg/mL (≈ 4.09 µM) with Listeria monocytogenes; 6.25 µg/mL (≈ 16.4 µM) with Streptococcus bovis; 12.5 µg/mL (≈ 32.7 µM) with Bacillus subtilis. The MIC (with Staphylococcus aureus; in series [11]; with Streptococcus pyogenes) was 12.5 µg/mL (≈ 32.7 µM) in each case. Moreover, in [5] (human, in vivo), the “unchanged drug in urine” value is given as “No unchanged econazole is detected”. The “dose recovered in urine and feces” value in series [5] (vaginal cream, over 96 hours) is reported as “less than 3%”. For the same molecule, the plasma protein binding result in the series on plasma protein was “greater than 98%”.

For the molecule `Clc1ccc(COC(Cn2ccnc2)c2ccc(Cl)cc2Cl)c(Cl)c1` (stereo not shown) [miconazole base, miconazole], the MIC is 0.39 µg/mL (≈ 0.937 µM) in series [10]; 25 µg/mL (≈ 60.1 µM) in the series on Streptococcus faecalis; 25 µg/mL (≈ 60.1 µM) with Streptococcus faecium; 1.56 µg/mL (≈ 3.75 µM) in the series on Listeria monocytogenes; 3.12 µg/mL (≈ 7.5 µM) in the series on Streptococcus bovis; 3.12 µg/mL (≈ 7.5 µM) with Bacillus subtilis. Also, the minimal inhibitory concentration (MIC) (in the series on Staphylococcus aureus; in series [11]; in the series on Streptococcus pyogenes) was 6.25 µg/mL (≈ 15 µM) throughout.
